In patent publication US6291657A (priority 1993, dated 2001):

Assays:
[1] = system: Glc-Cer accumulation in WEHI-3B murine macrophage cells; test: In vitro Gaucher's disease model: CBE induced glycolipid storage in WEHI-3B cells, 1D-TLC; assay type: cell-based; settings: for prevention of glycolipid storage in in vitro Gaucher's disease model (in words): CBE
Method: In this model, the murine macrophage cell line WEHI-3B was cultured in the presence of an irreversible glucocerebrosidase inhibitor, conduritol β epoxide (CBE), to mimic the inherited disorder found in Gaucher's disease. WEHI-3B cells are well-known, widely distributed and readily available murine macrophage cells. They are described in Cancer Res. 37, 546-550 (1977), and are readily available from the American Type Culture Collection, Rockville, Md, under accession number ATCC TIB 68. The compounds of the invention prevent lysosomal glycolipid storage which is useful for the management of Gaucher's disease and other glycolipid storage disorders as illustrated hereinafter in Table 3. Gaucher's disease is an autosomal recessive disorder characterized by an impaired ability to degrade glucocerebroside (glucosyl ceramide, Glc-Cer) due to mutations in the gene encoding β-glucocerebrosidase (β-D-glucosyl-N-acylsphingosine glucohydrolase, EC 3.2.1.45). This defect results in the lysosomal accumulation of Glc-Cer in cells of the macrophage-monocyte system [Barranger and Ginns, in The Metabolic Basis of Inherited Diseases, ed. Scriver et al., pp. 1677-1698, McGraw-Hill, New York, (1989); Beutler, Science 256, 794-799 (1992)]. By slowing the rate of glycolipid synthesis, the impaired catabolism of Glc-Cer can be offset, thereby leading to the maintenance of a balanced level of Glc-Cer.
FIGS. 5 and 6 show the analysis of NB-DNJ and NB-DGJ in an in vitro Gaucher's disease model.
The in vitro Gaucher's disease model was prepared as follows: WEHI-3B cells (American Type Culture Collection, Rockville, Md., U.S.A.) were maintained in logarithmic phase growth for 14 days in RPMI-1640 medium, 10% FCS, in the presence or absence of 50 μM conduritol β epoxide (CBE, Toronto Research Chemicals, Downsview, Canada) with or without NB-DNJ or NB-DGJ. Cells were passaged every 3 days and compound concentrations maintained throughout. Equal cell numbers (5×10^6) were harvested, extracted in 1 ml chloroform: methanol (2:1 v/v) overnight at 4° C., the extracts centrifuged, the chloroform:methanol extract retained and the pellet re-extracted as above for 2 hr. at room temperature. Pooled extracts were dried under nitrogen, re-dissolved in 10 μl chloroform:methanol (2:1 v/v) and separated by 1D-TLC in chloroform:methanol:water […]. Plates were air dried and visualized using α-naphthol (1% w/v in methanol) followed by 50% (v/v) sulphuric acid.

[2] = molecular target: UDP-glucose:N-acylsphingosine glucosyltransferase; test: Inhibition of UDP-glucose:N-acylsphingosine glucosyltransferase; assay type: biochemical, rat brain, mouse macrophage (WEHI-3B); settings: rat brain or mouse macrophage homogenates; read-out: IC50
[3] = system: cholera toxin binding sites on H9 cells; assay type: cell-based, human

`CCCCN1C[C@H](O)[C@@H](O)[C@@H](O)[C@H]1CO` [NB-DGJ, N-butyl deoxygalactonojirimycin] was tested, and the “prevention of glycolipid storage in in vitro Gaucher's disease model (in words)” value [1] was “as effective as NB-DNJ”, the “prevention of glycolipid storage in in vitro Gaucher's disease model (in words)” value ([1]; listed as N-butyl DGJ) was “offset glucoceramide accumulation” and the minimal effective concentration ([1]; Mus musculus, WEHI3B, 336 h, 50 μM CBE, 14 days (FIG. 5), read-out: dose range preventing CBE induced glycolipid storage) was 5 to 50 µM. For the same molecule, the IC50 [2] was 60.9 µM, the cholera toxin binding [3] was “reduction of the binding of cholera toxin” and the “reduction in cholera toxin binding” value ([3]; h9 cells, 4320 min) was “approximately 70%”.
